From ChEMBL document CHEMBL1201862, “PubChem BioAssay data set” (2004)
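Method: 48-hour compound exposure of cells in 96-well plates, five concentrations, linear interpolation of endpoints. At the GI50, growth is halved.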 Active and inactive are the calls of the source. No stated cut-off is given here; in the data, active = GI50 up to about 1.1 µM and inactive = higher.

Legend:
Experiment in all cases: inhibition of tumour cell growth, NCI panel, 48 h
[1] = test system: KM12
[2] = test system: HOP-92
[3] = test system: IGROV-1
[4] = test system: A549
[5] = test system: 786-0
[6] = test system: OVCAR-8
[7] = test system: RXF 393
[8] = test system: SK-OV-3
[9] = test system: OVCAR-5
[10] = test system: SF-295
[11] = test system: SR
[12] = test system: NCI-H226
[13] = test system: U-251
[14] = test system: NCI-H522
[15] = test system: K562
[16] = test system: Malme-3M
[17] = test system: HL-60
[18] = test system: SK-MEL-28

Measured: GI50

Cc1oc2c(C)c3oc(=O)cc(C)c3cc2c1CN1C(=O)C2OCCOCCOCCOCCOCCO[C@H]2C1=O (stereo partly specified)
inactive: [1] > 100 µM | [2] > 100 µM | [3] > 100 µM | [4] > 100 µM | [5] > 100 µM | [6] > 100 µM | [7] > 100 µM | [8] > 100 µM | [9] > 100 µM | [10] > 100 µM | [11] > 100 µM | [12] > 100 µM | [13] > 100 µM | [14] > 100 µM | [15] > 100 µM | [16] > 100 µM | [17] > 100 µM

Cn1c(=O)c2nc3c4ccccc4c(=O)n(C)c3nc2n(C)c1=O
inactive: [18] > 100 µM | [1] > 100 µM | [2] > 100 µM | [3] > 100 µM | [4] > 100 µM | [5] > 100 µM | [6] > 100 µM | [7] > 100 µM | [8] > 100 µM | [9] > 100 µM | [10] > 100 µM | [11] > 100 µM | [12] > 100 µM | [13] > 100 µM | [15] > 100 µM | [16] > 100 µM

NNC(=O)N/N=C1/C(=O)N(c2ccc(Cl)c(Cl)c2)C(=O)C(=O)C1c1nc2ccccc2o1 (stereo unspecified)
inactive: [18] > 100 µM | [2] > 100 µM | [3] > 100 µM | [4] > 100 µM | [5] > 100 µM | [6] > 100 µM | [8] > 100 µM | [9] > 100 µM | [10] > 100 µM | [12] > 100 µM | [13] > 100 µM | [14] 62.4 µM | [15] > 100 µM | [16] > 100 µM | [17] 42.9 µM

Cn1cc(NC(=O)c2cc(NC(=O)CCCCCCCC(=O)Nc3cc(C(=O)Nc4cc(C(=O)NCCC(=N)N)n(C)c4)n(C)c3)cn2C)cc1C(=O)NCCC(=N)N
inactive: [18] 11.7 µM | [1] 7.53 µM | [2] > 100 µM | [3] 5.82 µM | [4] 13.9 µM | [5] 34 µM | [6] 19.1 µM | [7] 17 µM | [8] > 100 µM | [9] > 100 µM | [10] > 100 µM | [11] 5.26 µM | [13] 17.2 µM | [15] 11 µM | [16] 5.75 µM | [17] 3.15 µM

O=S(=O)(c1ccccc1)c1nccs1
inactive: [18] > 100 µM | [1] > 100 µM | [3] > 100 µM | [4] > 100 µM | [5] > 100 µM | [6] > 100 µM | [8] > 100 µM | [9] > 100 µM | [10] > 100 µM | [11] > 100 µM | [12] > 100 µM | [13] > 100 µM | [14] > 100 µM | [15] > 100 µM | [17] > 100 µM

CCCCCCCCCCCCCCNCC(OC)OC
inactive: [18] 16.5 µM | [1] 13.3 µM | [2] 10.2 µM | [3] 17 µM | [4] 19.5 µM | [5] 16 µM | [6] 20.1 µM | [7] 14.7 µM | [8] 18.7 µM | [9] 14.6 µM | [10] 19.7 µM | [12] 17.1 µM | [13] 16.3 µM | [14] 16.9 µM | [16] 19.8 µM | [17] 5.25 µM

C=C(C)C(=O)OC1C/C(CO)=C\C(O)C/C(C)=C/C2OC(=O)C(=C)C21 (stereo unspecified)
inactive: [18] 17.3 µM | [1] 19.2 µM | [2] 20.8 µM | [3] 48.4 µM | [4] 64.4 µM | [5] 16 µM | [6] 20.3 µM | [8] > 100 µM | [9] 45.8 µM | [10] > 100 µM | [11] 19.9 µM | [12] 27.8 µM | [13] > 100 µM | [14] 12.8 µM | [15] 18 µM | [16] 20.6 µM

O=c1cccccc1NCCOCCNc1cccccc1=O
inactive: [18] > 100 µM | [1] > 100 µM | [3] > 100 µM | [4] > 100 µM | [5] > 100 µM | [6] > 100 µM | [8] > 100 µM | [9] > 100 µM | [10] > 100 µM | [12] > 100 µM | [13] > 100 µM | [14] > 100 µM | [15] > 100 µM | [16] > 100 µM | [17] > 100 µM
